Entries after “also recorded” stand apart in the source; their conditions may differ. Square brackets hold non-standard residues; d marks the D form. Peptide text beside a SMILES is read from it. 2Nal = N[C@@H](Cc1ccc2ccccc2c1)C(=O)O
Assays:
[1] = 28-day oral toxicity study: gross necropsy and organ weights; assay type: in vivo, male Sprague Dawley rats; conditions: for Heart weight on Necropsy: n = 10, mean ± SD
Experimental: The observations were recorded in the form of a sp readsheet and attached as an app endix to the report (Appendix C Study Data Spreadsheets). […]
Haematology and Biochemistry). […]
(Appendix C Study Data Spreadsheets).
Following sacrifice by intraperitoneal injection of sodium pentobarbitone a gros s necrop sy wa s performed. This included determination of the wet weight of the liver, kidneys, adrenals, testes, spleen, thymus, heart, epididymis, prostate + semi nal vesicle s with coagulating glands as whole […]
and brain. […]
Tissues and carcas ses were placed in 10% formalin. The tissues to be processed for histopathological examinations were fixed for at least 48 hours prior to cassette preparation. […]
Slides were […]
evaluated for histology change s under light microscopy at a magnification of 100 to 1000 times.
Individual histopathology results and a summar y are attached a s an app endix to the report (Appendix E Histopathology).
3.14. Statistical analyses
Clinical observations, detailed clinical observations, functional observations, blood and urine analyses and histopathology were summarised by descriptive analysis.
Statistical analyses, consisting of unpaired t-tests, were performed on measured variables: percentage body weight gain s, food consumption and organ weights as a percentage of body weight. A significance level of P < 0.05 was used for all tests.

[2] = 28-day repeated dose oral toxicity study (OECD 407): overall toxicity, mortality; assay type: in vivo, male Sprague Dawley rats
Experimental: Potential toxicity of c2 was evaluated with a 28-day repeated dose oral toxicity study (OECD 407) in male Sprague Dawley rats, with a recovery period. Animals (n = 10 per group) were treated with vehicle (1% carboxymethylcellulose in distilled water), c2 at 1 mg/kg or at 20 mg/kg every three days for 28 days. Animals were sacrificed on day 29 and blood and tissues were taken for further analysis. Two recovery groups treated concomitantly with the main study (n = 5, vehicle of 20 mg/kg c2) were monitored for a further 14-day treatment-free period, sacrificed on Day 43 and blood and tissues taken for analysis. (Data available on request).
2.8.4. Repeated dose toxicity
Repeated do se toxicity is the adver se effects o ccurring within a short time of several repeated administrations of a test item over a defined period.
The test item is the article that is the subject of the study.
Vehicle is any agent, which serves as a carrier used to mix, disperse, or solubilize the test item or reference item to facilitate the administration/application to the test system.
2.9. Principle of the test method
The test item suspension or vehicle was administered orally by gavage every three days for 28 days to three groups of male rat s at two do se le vels (low - 1 and high - 20 mg/kg) to as ses s toxicity. Two vehicle control groups were dosed with the vehicle. A recovery group was included to investigate reversibility of any toxicity and persistence or delayed occurrence of […]
Daily clinical obs ervations were performed. Weekly detailed clinical examination s were performed on all animals. Functional observations were performed in the last week of treatment.
Body weights were monitored weekly throughout the study. Feed intake was measured weekly.
Gross necropsy was conducted in all animals th at died or were killed during the study. Full blood analysis and detailed histopathology was performed on conclusion of the main study.
All tissues and carcasse s were placed in 10% formalin and retained for a period of 6 months. […]
3.1. Regulatory references
The study was conducted according to the OECD Guidelines for the Testing of Chemical s, No.407 - Repeated Dose 28-Day Oral Toxicity Study in Rodents. [Adopted: 3 October […]
3.1.2. Good Laboratory Practice
This study was conducted in accordance with the Organization of Economic Cooperation and Development (OECD) Principles of Good Laboratory Practice (as revised in 1997) ENV/MC/CHEM (98) 17. The study was performed in accordance with the agreed protocol and with ICP Firefly Pty Ltd Standard Operating Procedures (SOPs).
3.1.3. Animal Welfare Act compliance
The experimental protocol was approved by the ICP Firefly Animal Ethics Committee, and […]
Regulation 2005 and the Code of Practice under t hat Regulation. It was granted Approval […]
The Sponsor provided a Certificate of Analysis for the test item, which is attached a s an appendix to the report (Appendix A Certificate of Analysis). […]
3.4.1. Justification for species selection
The Specific Pathogen Free [SPF] male Sprague Dawley rat was selected since it is widely accepted and recognised by international guidelines as an appropriate experimental model […]
3.4.2. Species, strain source and housing
A total of 40 young adult Spe cific Pathogen Fr ee Mal e Sprague D awley rats weighing between 189 and 212 grams the b eginning of the experiment were used for the study. The animals were obtained from Animal Resources Ce ntre (ARC), WA, Australia. […]

[3] = 28-day oral toxicity study: feed consumption
Experimental: The calculated volumetric do se wa s administered to each rat orally by gav age, using a plastic
Two dose level s of 1 and 20 mg/kg of the te st it em susp ension were administered to each rat
every 3 days (total 10 do ses) for 28 days. This c orresponded to volumetric dose of 10.09 and
10.23 mL/kg. The volumetric dose administered to each animal was calculated on Days 1, 8, 15
Feed consumption was monitored weekly over the 28-day experimental period in all groups
and was continued for a further 2 weeks in the recovery groups (42-day experimental
period). Feed intake was monitored by providing a known mass of feed to each cage and
subtracting the mas s remaining at the end of th e weekly period. Animals were fa sted
overnight on either Day 28 (main groups) or Day 42 (recovery groups).

[4] = 28-day oral toxicity study: functional observation; assay type: in vivo, male Sprague Dawley rats; conditions: for Grip strength (mean) Forelimb / Grip strength (mean) Hind limb: week 4
Experimental: 3.6. Procedure for test item administration […]
intragastric cannula attached to a 3 mL syringe.
3.7. Observation of animals […]
groups: Day 29; recovery groups: Day 43).
(Appendix C Study Data Spreadsheets). […]
report (Appendix C Study Data Spreadsheets). […]
3.7.5. Functional observation […]
s upine drop, grip strength test. […]

[5] = Day 43, Gr 5 recovery, 20 mg/kg

CC(C)C[C@@H]1NC(=O)[C@H](Cc2ccc3ccccc3c2)NC(=O)[C@H](CCCNC(=N)N)NC(=O)[C@H](Cc2ccc3ccccc3c2)NC(=O)[C@H](CO)NC1=O [c2, cyclo-((2-Nal)-Leu-Ser-(2-Nal)-Arg)] (cyclo([2Nal]LS[2Nal]R))
Heart weight (% body weight) ([1]; 1 mg/kg): 0.31 ± 0.026 % body weight | Heart weight on Necropsy ([1]; 1 mg/kg): 1.211 ± 0.1348 g | Heart weight (% body weight) ([1]; 20 mg/kg): 0.34 ± 0.025 % body weight | Heart weight on Necropsy ([1]; 20 mg/kg): 1.322 ± 0.1050 g | Organ weight: Adrenals ([1]; Day 29, Gr 2, 1 mg/kg): 0.0454 ± 0.00783 g | Organ weight: Spleen ([1]; Day 29, Gr 2, 1 mg/kg): 0.8031 ± 0.0637 g | effect on organ weights as a percentage of body weight ([1]; Day 29, Gr 2, 1 mg/kg): did not have any effect | macroscopic changes at necropsy ([1]; Day 29, Gr 2, 1 mg/kg): No gross abnormalities | Organ weight: Adrenals ([1]; Day 29, Gr 3, 20 mg/kg): 0.0473 ± 0.00889 g | effect on organ weights as a percentage of body weight ([1]; Day 29, Gr 3, 20 mg/kg): did not have any effect | macroscopic changes at necropsy ([1]; Day 29, Gr 3, 20 mg/kg): No gross abnormalities | Organ weight (% body weight): Adrenals [1, 5]: 0.0097 ± 0.00158% | Organ weight: Adrenals [1, 5]: 0.0443 ± 0.0061 g | effect on organ weights as a percentage of body weight [1, 5]: did not have any effect | macroscopic changes at necropsy [1, 5]: No gross abnormalities | effective concentration relative to the maximum observed dosage with no toxicity ([2]; 0.1 mg/kg vs 40 mg/kg): 400 times | urinalysis and blood analysis ([2]; 1 and 20 mg/kg): no test item related effects | toxicity (all measures) ([2]; 1 and 20 mg/kg po every three days over 28 days): no observable toxicity; also recorded: no toxic effects | mortality related to the treatment ([2]; 1 and 20 mg/kg, main and recovery study): No mortalities | NOAEL at 672 h ([2]; male, Sprague Dawley, rat, in vivo, po, Appendix 1, read-out: maximum observed dosage with no toxicity): 40 mg/kg | feed intake vs control ([3]; 28-day and 42-day experimental period): similar | Mean feed intake/cage/week ([3]; Week 1, Gr 2, 1 mg/kg, 5 animals/cage): 801 ± 26.9 g | Mean feed intake/cage/week ([3]; Week 1, Grs 3 & 5, 20 mg/kg): 819 ± 55.4 g | Mean feed intake/cage/week ([3]; Week 2, Gr 2, 1 mg/kg): 839 ± 12.0 g | Mean feed intake/cage/week ([3]; Week 2, Grs 3 & 5, 20 mg/kg): 877 ± 45.1 g | Mean feed intake/cage/week ([3]; Week 3, Gr 2, 1 mg/kg): 845 ± 0 g | Mean feed intake/cage/week ([3]; Week 3, Grs 3 & 5, 20 mg/kg): 916 ± 35.2 g | Mean feed intake/cage/week ([3]; Week 4, Grs 3 & 5, 20 mg/kg): 815 ± 42.0 g | Mean feed intake/cage/week ([3]; Week 5, Gr 5 recovery, 20 mg/kg): 1013 g | Mean feed intake/cage/week ([3]; Week 6, Gr 5 recovery, 20 mg/kg): 802 g | Mean feed intake/cage/week ([3]; week 4, Gr 2, 1 mg/kg): 775 ± 27.6 g | functional observations tests ([4]; Week 4): no effect | Grip strength (mean) Forelimb ([4]; Gr 2, 1 mg/kg): 487 ± 33.0 | Grip strength (mean) Hind limb ([4]; Gr 2, 1 mg/kg): 59 ± 3.2 | Grip strength (mean) Forelimb ([4]; Gr 3, 20 mg/kg): 458 ± 39.9 | Grip strength (mean) Hind limb ([4]; Gr 3, 20 mg/kg): 57 ± 2.5 | Grip strength (mean) Forelimb ([4]; Gr 5, 20 mg/kg): 456 ± 47.2 | Grip strength (mean) Hind limb ([4]; Gr 5, 20 mg/kg): 61 ± 3.8

Reference: article PMC12876990, “Targeting secreted PLA2 interactions with EGFR and vimentin to arrest prostate tumour growth” (Cell Death & Disease, 2025)
